# Assay results published in the SangsterLogP compilation.
# Key:
# [1] = method code SF-AS, from DOI: 10.1248/cpb.33.2403, PMID: 4064199
# [2] = method code SF-GLC, from DOI: 10.1248/cpb.33.2403, PMID: 4064199
# [3] = method code SF-HPLC, from DOI: 10.1248/cpb.33.2403, PMID: 4064199
logP [1],Structure (SMILES),further results
2.54,CN(C)C(=O)OCCc1c[nH]c2ccccc12,
2.93,CCN(CC)C(=O)OCc1ccccc1,
1.44,CN(C)C(=O)OCCCc1cccnc1,
,CC(C)COC(=O)N(C)C,logP [2]: 2
2.82,CCN(CC)C(=O)OCC(C)C,
3.3,CCN(CC)C(=O)OCCc1c[nH]c2ccccc12,
,CC(C)COC(N)=O,logP [2]: 0.98
,CC(Cc1ccccc1)OC(=O)N(C)C (stereo unspecified),logP [3]: 2.6
2.93,CN(C)C(=O)OCCCc1ccccc1,
1.38,CC(C)OC(=O)N(C)C,
2.4,CN(C)C(=O)OCCc1ccccc1,
3.2,CCN(CC)C(=O)OCCc1ccccc1,
,CCC(CC)COC(=O)N(CC)CC,logP [3]: 3.6
2.87,CCC(CC)COC(=O)N(C)C,

Structure (SMILES),logP [1],further results
NC(=O)OCCc1c[nH]c2ccccc12,1.69,
CCC(CC)COC(N)=O,1.98,
CNC(=O)OCc1ccccc1,1.68,
NC(=O)OCc1ccc(Cl)cc1,1.97,
NC(=O)OCCCc1cccnc1,0.46,
NC(=O)OCCCc1ccccc1,1.96,
NC(=O)OCCc1ccccc1,1.5,
